Patent EP0250755A2, “Fluorine derivatives of vitamin D3 and process for producing the same” (SUMITOMO PHARMACEUTICALS COMPANY, LIMITED, priority 1986, dated 1988)

Experiments:
vitamin D-deficient rats [1] = test: Bone calcium mobilization response (serum calcium, OCPC method) in vitamin D-deficient rats; format: in vivo; settings: intrajugular, 24 hours after administration, Mean ± SD (N = 4 ~ 6)
Description: Blood was collected after 24 hours, and the concentration of calcium in serum was determined by the OCPC (orthocresolphthalein complexon) method.

[2] = system: human premyeloblast leukemia cells (HL-60); test: NBT reduction (differentiation of HL-60 cells into macrophages); format: cell-based; settings: HL-60, 4 days, control 0.5
Description: Thereafter, the cells were smeared onto a slide glass, subjected to Giemsa staining, and the coloration of the cells was examined under a microscope. The number of cells containing intracellular blue-black formazan deposits was measured for 200 cells, and the results were expressed in terms of the percentage of NBT reduction-positive cells.

[3] = system: human premyeloblast leukemia cells (HL-60); test: Proliferation-suppression rate of HL-60 cells (Coulter counter, 4 days cultivation); format: cell-based; settings: 96 h, HL-60, 4 days; for inhibition at 0.1 ng/mL: Concn. 0.1 ng/mL; for inhibition at 1 ng/mL: Concn. 1 ng/mL; for inhibition at 10 ng/mL: Concn. 10 ng/mL
Description: An HL-60 cell fluid adjusted to a concentration of 5 x 10^4 cells/ml was incorporated with each of the agents to be tested and cultivated in a carbon dioxide incubator at 37°C for 4 days. After the cultivation, the number of cells was measured by means of a Coulter counter. The percentage of the number thus measured relative to the number of cells in an untreated group was calculated, from which the proliferation-suppression rate was obtained.

vitamin D-deficient rats [4] = test: Intestinal calcium transport response (method of Martin and DeLuca) in vitamin D-deficient rats; format: in vivo; settings: intrajugular, 24 hours after administration, Mean ± SD (N = 4 ~ 6)
[5] = dose 50 pmol/100 g body wt., control 4.8 ± 0.29
[6] = dose 50 pmol/100 g body wt., control 2.6 ± 0.27
[7] = dose 650 pmol/100 g body wt., control 4.8 ± 0.31
[8] = dose 650 pmol/100 g body wt., control 2.5 ± 0.30

Structure (SMILES) | Serum calcium (vitamin D-deficient rats [1]; [5]) | NBT reduction rate ([2]; Concn. 0.1 µg/ml) | NBT reduction rate ([2]; Concn. 1 µg/ml) | NBT reduction rate ([2]; Concn. 10 µg/ml) | inhibition at 0.1 ng/mL [3] | inhibition at 1 ng/mL [3] | inhibition at 10 ng/mL [3] | Intestinal calcium transport (Ca [S/M]) (vitamin D-deficient rats [4]; [6]) | Serum calcium (vitamin D-deficient rats [1]; [7]) | Intestinal calcium transport (Ca [S/M]) (vitamin D-deficient rats [4]; [8])
C=C1/C(=C\C=C2/CCC[C@]3(C)[C@@H]([C@H](C)CC[C@@H](O)C(O)(C(F)(F)F)C(F)(F)F)CC[C@@H]23)C[C@@H](O)C[C@@H]1O [Compound 6b, 24(R)-26,26,26,27,27,27-hexafluoro-1α,24,25-trihydroxyvitamin-D3] | 6.3 ± 0.55 mg/100 ml | 32.0% | 79.5% | 83.5% | 50.2% | 84.7% | 90.4% | 8.9 ± 2.81 Ca [S/M] |  | 
C=C1/C(=C\C=C2/CCC[C@]3(C)[C@@H]([C@H](C)CCC(=O)C(O)(C(F)(F)F)C(F)(F)F)CC[C@@H]23)C[C@@H](O)C[C@@H]1O [Compound 10, la,25-dihydroxy-26,26,26,27,27,27-hexafluoro-24-oxovitamin D3] | 6.5 ± 0.40 mg/100 ml | 12.5% | 46.0% | 82.5% | 45.9% | 78.6% | 89.9% | 6.5 ± 1.92 Ca [S/M] |  | 
C=C1/C(=C\C=C2/CCC[C@]3(C)[C@@H]([C@H](C)CCCC(C)(C)O)CC[C@@H]23)C[C@@H](O)C[C@@H]1O [1α,25-(OH)2D3, 1α,25-Dihydroxyvitamin D3, reference compound] | 5.5 ± 0.30 mg/100 ml | 1.0% | 16.5% | 56.5% | 6.2% | 36.1% | 72.4% | 3.4 ± 0.72 Ca [S/M] | 8.5 ± 0.59 mg/100 ml | 3.6 ± 0.52 Ca [S/M]
C=C1/C(=C\C=C2/CCC[C@]3(C)[C@@H]([C@H](C)C[C@H](O)CC(O)(C(F)(F)F)C(F)(F)F)CC[C@@H]23)C[C@@H](O)C[C@@H]1O [Compound 28b, 23(S)-26,26,26,27,27,27-hexa-fluoro-1α,23,25-trihydroxyvitamin D3] |  | 2.0% | 60.0% | 81.0% | 22.8% | 67.3% | 86.9% |  | 5.6 ± 0.60 mg/100 ml | 5.7 ± 1.92 Ca [S/M]
C=C1/C(=C\C=C2/CCC[C@]3(C)[C@@H]([C@H](C)C[C@@H](O)CC(O)(C(F)(F)F)C(F)(F)F)CC[C@@H]23)C[C@@H](O)C[C@@H]1O [Compound 28a, 23(R)-26,26,26,27,27,27-hexa-fluoro-1α,23,25-trihydroxyvitamin D3] |  | 6.5% | 60.5% | 80.0% | 19.8% | 76.4% | 92.2% |  | 7.2 ± 0.67 mg/100 ml | 6.3 ± 1.88 Ca [S/M]
C=C1/C(=C\C=C2/CCC[C@]3(C)[C@@H]([C@H](C)CC[C@H](O)C(O)(C(F)(F)F)C(F)(F)F)CC[C@@H]23)C[C@@H](O)C[C@@H]1O [Compound 6a, 24(S)-26,26,26,27,27,27-hexa-fluoro-la,24,25-trihydroxyvitamin D3] |  | 8.0% | 55.0% | 86.0% | 30.7% | 74.9% | 83.7% |  |  | 
